Assay results published in paper PMC5088614 (PeerJ, 2016).
Converted amounts (≈) assume the structure as drawn. “And” between values parts separate entries of the source, which are not always exact repeats. Equal values may be shown once. “Also recorded” adds a separate entry of the source. Read-outs that look alike come from different tables or passages of the source. Positions of bridges follow the written chain, without caps; N, C: chain ends. Residues, ends and D or L forms follow the SMILES beside them.

Columns and labels:
E.coli ATCC 25922 = format: cell-based, Escherichia coli
[1] = test system: A549, HEPG2 and AGS cells
[2] = test system: B. pseudomallei strains used in the preliminary study; format: cell-based, Burkholderia pseudomallei
[3] = test system: B. pseudomallei K96243 biofilm; format: cell-based, Burkholderia pseudomallei; parameters: Mean Diff., Untreated vs treated, Dunnett's Multiple Comparison Test (data for figure 2): unit not given here
B. pseudomallei biofilm = details: cited from earlier work
[4] = test system: B. pseudomallei strain K96243; format: cell-based, Burkholderia pseudomallei
[5] = test system: human gastric adenocarcinoma (AGS) cells; details: cited from earlier work
[6] = test system: human lung epithelial (A549) cells; details: cited from earlier work
[7] = test system: Escherichia coli (ATCC 29522)
[8] = test system: human hepatocellular carcinoma (HepG2) cells
E. coli = format: cell-based, Escherichia coli
[9] = test system: human gastric adenocarcinoma (AGS) cells
[10] = test system: human lung epithelial (A549) cells
B. pseudomallei isolates = format: cell-based, Burkholderia pseudomallei
[11] = test system: B. pseudomallei strain K96243 and clinical strains UMC031, UMC080, UMC089; details: for MIC, B. pseudomallei (average): 24 h
[12] = test system: human hepatocellular carcinoma (HepG2) cells; details: cited from earlier work
B. pseudomallei K96243 = format: cell-based, Burkholderia pseudomallei

For `CC(C)(O/N=C(\C(=O)N[C@@H]1C(=O)N2C(C(=O)[O-])=C(C[n+]3ccccc3)CS[C@H]12)c1csc(N)n1)C(=O)O` [CAZ, ceftazidime], the “Antibiotic susceptibility by disk diffusion” value (“Antibiotic susceptibility” below) (E.coli ATCC 25922) was “S”, the “Mean Diff., 0 vs comparator, Dunnett's Multiple Comparison Test (MTT)” value (from here on “Mean Diff., 0 vs comparator”) [1] was 13.7 and the “Antibiotic susceptibility” value [2] was “R and S”. For the same molecule, the “Mean Diff., Untreated vs treated, Dunnett's Multiple Comparison Test (data for figure 2)” value (“Mean Diff., Untreated vs treated” below) [3] was 7.842, the “reduction of surviving bacteria in biofilm state compared to the untreated (significance)” value (“reduction of surviving bacteria … (significance)” below) [3] was “significant reduction” and the “inhibition of bacteria in biofilm state compared to untreated” value ([3]; 24 h) was “complete inhibition”. The “concentration with anti-B. pseudomallei biofilm / biofilm inhibition activity” value (B. pseudomallei biofilm) was 936 µM and the “time after exposure to growth inhibition / bactericidal endpoint” value [4] was 8 h.

With `O=C(O)c1cn(C2CC2)c2cc(N3CCNCC3)c(F)cc2c1=O` [CIP] the “Antibiotic susceptibility” value (E.coli ATCC 25922) was “S”.

In the case of `O=C(N[C@H](CO)[C@H](O)c1ccc([N+](=O)[O-])cc1)C(Cl)Cl` [C], the “Antibiotic susceptibility” value (E.coli ATCC 25922) is reported as “S” and the “Antibiotic susceptibility” value [2] is reported as “S and R”.

For `C[C@H]1c2cccc(O)c2C(O)=C2C(=O)[C@]3(O)C(O)=C(C(N)=O)C(=O)[C@@H](N(C)C)[C@@H]3[C@@H](O)[C@@H]21` [DXT], the “Antibiotic susceptibility” value (E.coli ATCC 25922) was “S” and the “Antibiotic susceptibility” value [2] was “S”.

With `C[C@@H](O)[C@H]1C(=O)N2C(C(=O)O)=C(SCCN=CN)C[C@H]12` [IMI] the “Antibiotic susceptibility” value (E.coli ATCC 25922) was “S” and the “Antibiotic susceptibility” value [2] was “S”.

For `CC[C@H](C)[C@H](NC(=O)[C@H](CCCCN)NC(=O)[C@H](CCC(=O)O)NC(=O)[C@H](CCCCN)NC(=O)[C@H](CO)NC(=O)[C@H](CCCCN)NC(=O)[C@H](CCCNC(=N)N)NC(=O)[C@H](Cc1ccccc1)NC(=O)[C@H](Cc1ccccc1)NC(=O)[C@H](CC(=O)O)NC(=O)CNC(=O)[C@H](CC(C)C)NC(=O)[C@@H](N)CC(C)C)C(=O)NCC(=O)N[C@@H](CCCCN)C(=O)N[C@@H](CCC(=O)O)C(=O)N[C@@H](Cc1ccccc1)C(=O)N[C@@H](CCCCN)C(=O)N[C@@H](CCCNC(=N)N)C(=O)N[C@H](C(=O)N[C@H](C(=O)N[C@@H](CCC(N)=O)C(=O)N[C@@H](CCCNC(=N)N)C(=O)N[C@H](C(=O)N[C@@H](CCCCN)C(=O)N[C@@H](CC(=O)O)C(=O)N[C@@H](Cc1ccccc1)C(=O)N[C@@H](CC(C)C)C(=O)N[C@@H](CCCNC(=N)N)C(=O)N[C@@H](CC(N)=O)C(=O)N[C@@H](CC(C)C)C(=O)N[C@H](C(=O)N1CCC[C@H]1C(=O)N[C@@H](CCCNC(=N)N)C(=O)N[C@H](C(=O)N[C@@H](CCC(=O)O)C(=O)N[C@@H](CO)C(=O)O)[C@@H](C)O)C(C)C)[C@@H](C)CC)C(C)C)[C@@H](C)CC` [LL-37], the “cytotoxicity to AGS” value [5] is given as “cytotoxic”, the “cytotoxicity to A549” value [6] is given as “cytotoxic” and the “MBC, E.coli (ATCC 29522)” value ([7]; ATCC 29522, 24 h) is given as 14.8 ± 6.42 µM (≈ 66.5 µg/mL). The “MIC, E.coli (ATCC 29522)” value ([7]; ATCC 29522, 24 h) was 14.8 ± 6.42 µM (≈ 66.5 µg/mL).

In the case of `C[C@@H](O)[C@H]1C(=O)N2C(C(=O)O)=C(S[C@@H]3CN[C@H](C(=O)N(C)C)C3)[C@H](C)[C@H]12` [MRP, meropenem], the “Antibiotic susceptibility” value (E.coli ATCC 25922) is reported as “S”, the “Mean Diff., 0 vs comparator” value [1] is reported as 11.53 and the “Antibiotic susceptibility” value [2] is reported as “S”. For the same molecule, the “Mean Diff., Untreated vs treated” value [3] was 7.842, the “reduction of surviving bacteria … (significance)” value [3] was “significant reduction” and the “inhibition of bacteria in biofilm state compared to untreated” value ([3]; 24 h) was “complete inhibition”.

For `CC(C)C[C@H](NC(=O)[C@H](CCCNC(=N)N)NC(=O)CNC(=O)CNC(=O)[C@@H](N)CCCNC(=N)N)C(=O)N[C@H]1CSSC[C@@H](C(=O)N[C@H](C(=O)NCC(=O)N[C@@H](CCCNC(=N)N)C(N)=O)C(C)C)NC(=O)[C@H](C(C)C)NC(=O)[C@@H]2CSSC[C@H](NC(=O)[C@H](Cc3ccc(O)cc3)NC1=O)C(=O)N[C@@H](CCCNC(=N)N)C(=O)N[C@@H](CCCNC(=N)N)C(=O)N[C@@H](CCCNC(=N)N)C(=O)N[C@@H](Cc1ccccc1)C(=O)N2` [PG1, Protegrin 1], the “percentage of viable cells, HEPG2” value ([8]; 2 h, 115 μM) was 5.0%, the “Susceptibility of strain to AMP (S/R), preliminary study” value (“Susceptibility of strain to AMP (S/R)” below) (E. coli) was “S” and the “percentage of viable cells, AGS” value ([9]; 2 h, 115 μM) was 3.0%. For the same molecule, the “Mean Diff., 0 vs comparator” value [1] was 96.14, the “percentage of viable cells, A549” value ([10]; 2 h, 115 μM) was 3.3% and the “B. pseudomallei isolates susceptible to the AMP” value (B. pseudomallei isolates) was 100%. For the same molecule, the “MIC, E.coli (ATCC 29522)” value ([7]; 37 °C 24 h) was 5.8 ± 1.09E-15 μM, the “Mean Diff., Untreated vs treated” value [3] was 6.743 and the “reduction of surviving bacteria … (significance)” value [3] was “significant reduction”. The “surviving bacteria in biofilm state 24 h post exposure” value [3] was 1.1 log CFU/biofilm, the “MIC, B. pseudomallei (average)” value [11] was 15.46 ± 5.02 µM (≈ 33.3 µg/mL) and the “cytotoxicity against Hep G2” value [12] was “cytotoxic”.

With `CN(C)c1cc(NC(=O)CNC(C)(C)C)c(O)c2c1C[C@H]1C[C@H]3[C@H](N(C)C)C(O)=C(C(N)=O)C(=O)[C@@]3(O)C(O)=C1C2=O` [TGC] the “Antibiotic susceptibility” value [2] was “R and S”.

With `CC[C@H](C)[C@@H]1NC(=O)CNC(=O)[C@H](CCCNC(=N)N)NC(=O)[C@H](Cc2ccc(O)cc2)NC(=O)[C@@H]2CSSC[C@H](NC1=O)C(=O)N[C@@H](Cc1ccc(O)cc1)C(=O)N[C@@H](CCCNC(=N)N)C(=O)N[C@@H](CCCNC(=N)N)C(=O)N[C@H](C(=O)N[C@@H](CCCNC(=N)N)C(N)=O)CSSC[C@H](NC(=O)[C@H](Cc1c[nH]c3ccccc13)NC(=O)[C@@H](N)CCCCN)C(=O)N[C@@H](Cc1ccccc1)C(=O)N[C@@H](CCCNC(=N)N)C(=O)N[C@@H](C(C)C)C(=O)N2` [TP1, Tachyplesin 1] (H-KWCFRVCYRGICYRRCR-NH2; disulfide 3-16, 7-12) the “MTT, mean over the lower concentrations” value [8] was 91.041, the “Susceptibility of strain to AMP (S/R)” value (E. coli) was “S” and the “MTT, mean over the lower concentrations” value [9] was 87.0414. The “percentage of viable cells, AGS” value ([9]; 2 h, 2.7 μM) was 85.1%, the “percentage of viable cells, AGS” value ([9]; 2 h, 48.6 μM) was 80% and the “percentage of viable cells, AGS” value ([9]; 24 h, 22.3 μM) was 90.0 ± 8.4%. For the same molecule, the “MTT, mean over the lower concentrations” value [10] was 86.0736, the “cell morphology by SEM” value (B. pseudomallei K96243) was “membrane blebbing; also recorded: corrugated with dimples on the surface” and the “B. pseudomallei isolates susceptible to the AMP” value (B. pseudomallei isolates) was 83%. The “Susceptibility of strain to AMP (S/R)” value (B. pseudomallei isolates) was “S and R”, the “MBC, E.coli (ATCC 29522)” value ([7]; ATCC 29522, 24 h) was 22.1 ± 0 µM (≈ 50 µg/mL) and the “MIC, E.coli (ATCC 29522)” value ([7]; ATCC 29522, 24 h) was 22.1 ± 0 µM (≈ 50 µg/mL). The MBEC [3] was “not achieved”, the “Mean Diff., 0 vs concentration (Bonferroni's test)” value [3] was 4.116 and 4.208 and the “Mean Diff., Untreated vs treated” value [3] was 3.641. For the same molecule, the “concentration of maximum inhibition of cells in biofilm state” value [3] was 442 µM, the “concentration reducing the number of B. pseudomallei in biofilm state” value [3] was “above 55 μM” and the “inhibition activity of TP1 higher than LL-37” value [3] was “approximately 2.0 log”. The “inhibition activity of TP1 lower than PG1” value [3] was 3.5 log, the “log reduction of bacteria in biofilm state” value [3] was 1.0 log and 1.3 log and the “reduction of surviving bacteria … (significance)” value [3] was “significant reduction”. The “surviving bacteria in biofilm state” value [3] was roughly 4.00 log CFU/biofilm, the “surviving bacteria in biofilm state 24 h post exposure” value [3] was 4.2 log CFU/biofilm and the “surviving bacteria in biofilm state at the end of the TP1 concentration series” value ([3]; 24 h) was 3.6 log CFU/biofilm. For the same molecule, the “MBC, B. pseudomallei (average)” value ([11]; 37 °C 24 h) was 193.35 ± 2.00E-14 μM, the “MIC, B. pseudomallei (average)” value [11] was 61.69 ± 6.38 µM (≈ 140 µg/mL) and the “concentration inhibiting B. pseudomallei K96243 growth” value [4] was greater than 55 µM. For the same molecule, the “time after exposure to growth inhibition” value [4] was “following eight hours of exposure” and the “viable bacteria at 24 h” value [4] was 9.96 log CFU/ml.

With “GFKLKGMARISCLPNGQWSNFPPKCIRECA [Sushi 1]” the “Susceptibility of strain to AMP (S/R)” value (E. coli) was “S”, the “Susceptibility of strain to AMP (S/R)” value (B. pseudomallei isolates) was “R” and the “Mean Diff., Untreated vs treated” value [3] was 0.04572.

With GIGKFLHSAKKFGKAFVGEIMNS [Magainin 2] the “Susceptibility of strain to AMP (S/R)” value (E. coli) was “S”, the “Susceptibility of strain to AMP (S/R)” value (B. pseudomallei isolates) was “R” and the “Mean Diff., Untreated vs treated” value [3] was 0.2494.

In the case of “HAEHKVKIGVEQKYGQFPQGTEVTYTCSGNYFLM [Sushi 3]”, the “Susceptibility of strain to AMP (S/R)” value (E. coli) is reported as “S”, the “Susceptibility of strain to AMP (S/R)” value (B. pseudomallei isolates) is reported as “R” and the “Mean Diff., Untreated vs treated” value [3] is reported as 0.04165.

In the case of Ornithine, the “Susceptibility of strain to AMP (S/R)” value (E. coli) is reported as “S” and the “Susceptibility of strain to AMP (S/R)” value (B. pseudomallei isolates) is reported as “R”.
